Source: the supplement of paper PMC10307832

Experiments:
Assay in all cases: relative viability (nuclei count vs DMSO), 5 days (fraction); higher = more cells survive
Vorinostat + Bortezomib = compound: O=C(CCCCCCC(=O)Nc1ccccc1)NO [Vorinostat] + CC(C)C[C@H](NC(=O)[C@H](Cc1ccccc1)NC(=O)c1cnccn1)B(O)O [Bortezomib] (partner 0.002 µM)
Summary of the method: (§1)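 After 5 days of treatment, lung cancer cells in 1536-well plates were fixed and stained in a single step (final 0.05% Triton X-100, 1% formaldehyde, 1 ug/ml Hoechst) and their nuclei counted on 4× images. Treatment had been applied by pin tool the day after seeding as one drug alone or as a fixed anchor-drug dose with five library-drug doses (not always all listed) in √10 steps. Relative viability is the nuclei count of treated wells divided by that of vehicle wells, and values are medians of duplicate plates.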

Vorinostat + Navitoclax = compound: O=C(CCCCCCC(=O)Nc1ccccc1)NO [Vorinostat] + CC1(C)CCC(c2ccc(Cl)cc2)=C(CN2CCN(c3ccc(C(=O)NS(=O)(=O)c4ccc(N[C@H](CCN5CCOCC5)CSc5ccccc5)c(S(=O)(=O)C(F)(F)F)c4)cc3)CC2)C1 [Navitoclax] (partner 0.5 µM)
Summary of the method: as §1

Vorinostat + Alpelisib = compound: O=C(CCCCCCC(=O)Nc1ccccc1)NO [Vorinostat] + Cc1nc(NC(=O)N2CCC[C@H]2C(N)=O)sc1-c1ccnc(C(C)(C)C(F)(F)F)c1 [Alpelisib] (partner 2 µM)
Summary of the method: as §1

Vorinostat + Decitabine = compound: O=C(CCCCCCC(=O)Nc1ccccc1)NO [Vorinostat] + Nc1ncn([C@H]2C[C@H](O)[C@@H](CO)O2)c(=O)n1 [Decitabine] (partner 2 µM)
Summary of the method: as §1

Cell Line | relative viability (Vorinostat + Bortezomib; first compound 0.253 µM) | relative viability (Vorinostat + Bortezomib; first compound 0.8 µM) | relative viability (Vorinostat + Bortezomib; first compound 2.53 µM) | relative viability (Vorinostat + Bortezomib; first compound 8 µM) | relative viability (Vorinostat + Navitoclax; first compound 0.253 µM) | relative viability (Vorinostat + Navitoclax; first compound 0.8 µM) | relative viability (Vorinostat + Navitoclax; first compound 2.53 µM) | relative viability (Vorinostat + Navitoclax; first compound 8 µM) | relative viability (Vorinostat + Alpelisib; first compound 0.253 µM) | relative viability (Vorinostat + Alpelisib; first compound 0.8 µM) | relative viability (Vorinostat + Alpelisib; first compound 2.53 µM) | relative viability (Vorinostat + Alpelisib; first compound 8 µM) | relative viability (Vorinostat + Decitabine; first compound 0.253 µM) | relative viability (Vorinostat + Decitabine; first compound 0.8 µM) | relative viability (Vorinostat + Decitabine; first compound 2.53 µM) | relative viability (Vorinostat + Decitabine; first compound 8 µM)
NCI-H1792 | 1.01 | 0.902 | 0.637 | 0.0799 | 0.763 | 0.601 | 0.392 | 0.0388 | 0.742 | 0.55 | 0.207 | 0.0419 | 0.414 | 0.413 | 0.163 | 0.0341
NCI-H647 | 1.18 | 0.609 | 0.0719 | 0.0336 | 1.14 | 0.759 | 0.149 | 0.0271 | 1.51 | 0.966 | 0.254 | 0.0332 | 0.356 | 0.286 | 0.137 | 0.0323
NCI-H1437 | 0.578 | 0.417 | 0.117 | 0.0915 | 1.11 | 0.908 | 0.166 | 0.118 | 0.858 | 0.738 | 0.152 | 0.104 | 0.55 | 0.454 | 0.285 | 0.235
NCI-H1915 | 1.01 | 0.951 | 0.54 | 0.112 | 0.792 | 0.762 | 0.479 | 0.0857 | 1.16 | 1 | 0.4 | 0.0675 | 0.278 | 0.254 | 0.174 | 0.106
UMC-11 | 0.672 | 0.56 | 0.0652 | 0.0503 | 0.277 | 0.154 | 0.0896 | 0.0856 | 1.02 | 0.852 | 0.221 | 0.0659 | 0.613 | 0.402 | 0.179 | 0.134
HCC-44 | 0.886 | 0.883 | 0.514 | 0.109 | 0.986 | 0.967 | 0.542 | 0.137 | 0.896 | 0.587 | 0.186 | 0.0876 | 1.03 | 0.896 | 0.737 | 0.413
NCI-H23 | 1.19 | 1.07 | 0.251 | 0.128 | 1.06 | 0.89 | 0.25 | 0.142 | 0.84 | 0.707 | 0.213 | 0.117 | 0.299 | 0.241 | 0.139 | 0.155
